Counter-ions that a name gives are not always drawn.
molecular target: KRAS protein containing G12D mutation (Homo sapiens (Human), UniProt P01116, G12D); assay: SOS-catalyzed nucleotide exchange assay (GNE), TR-FRET; type: biochemical; details: biotinylated KRAS G12D, SOS and GTP, 60-minute incubation
Method: Compounds are added to this complex and then after a 60-minute incubation time the mixture is treated with SOS and unlabeled GTP. Small molecule inhibitors stabilize the Bodipy-GDP complex whereas the untreated protein rapidly exchanges Bodipy-GDP for unlabeled GTP resulting in reduced TR-FRET signal.
This solution is referred to as biotinylated KRAS G12D stock solution.

Sequence of KRAS protein containing G12D mutation (P01116 other isoform, or with tags, fused parts or gaps G12D (already in the parent)): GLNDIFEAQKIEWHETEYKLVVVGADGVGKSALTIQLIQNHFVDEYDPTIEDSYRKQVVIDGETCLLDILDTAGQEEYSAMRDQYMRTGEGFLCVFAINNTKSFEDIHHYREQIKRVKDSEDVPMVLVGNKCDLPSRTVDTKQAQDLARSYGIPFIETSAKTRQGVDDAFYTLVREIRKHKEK

Row | IC50 [nM] | Structure (SMILES)
1 | 25.4 | CN(C)CC1(COc2nc(N3C[C@H]4CC[C@@](C)(C3)N4)c3cc(F)c(-c4cc(O)cc5ccccc45)c(F)c3n2)CC1C(=O)O (stereo partly drawn) [Ex. 107, 2-(((6,8-difluoro-7-(3-hydroxynaphthalen-1-yl)-4-((1S,5R)-1-methyl-3,8-diazabicyclo[3.2.1]octan-3-yl)quinazolin-2-yl)oxy)methyl)-2-((dimethylamino)methyl)cyclopropane-1-carboxylc acid]
2 | 697 | C[C@]12CC[C@H](CN(c3nc(OCC4(N)CCOC4)nc4c(F)c(-c5cc(O)cc6ccccc56)c(F)cc34)C1)N2 (stereo partly drawn) [Example 113, 4-(2-((3-amino-tetrahydrofuran-3-yl)methoxy)-6,8-difluoro-4-((1S,5R)-1-methyl-3,8-diazabicyclo [3.2.1]octan-3-yl)quinazolin-7-yl)naphthalen-2-ol, TFA]
3 | 41.3 | C#Cc1c(F)ccc2ccc(F)c(-c3c(F)cc4c(N5CC6CC[C@@](C)(C5)N6)nc(OC[C@@]56CCCN5C[C@H](F)C6)nc4c3F)c12 (single isomer, unassigned) [246a]
4 | 69.8 | C[C@]12CC[C@H](CN(c3nc(OC[C@@H]4CCCN4CCO)nc4c(F)c(-c5cc(O)cc6ccccc56)c(F)cc34)C1)N2 [Ex. 225, 4-(6,8-difluoro-2-(((S)-1-(2-hydroxyethyl)pyrrolidin-2-yl)methoxy)-4-((1S,5R)-1-methyl-3,8-diazabicyclo[3.2.1]octan-3-yl)quinazolin-7-yl)naphthalen-2-ol]
5 | 5.07 | Cc1cccc2cc(O)cc(-c3c(F)cc4c(N5CC6CC[C@@](C)(C5)N6)nc(OC[C@@]56CCCN5C[C@H](F)C6)nc4c3F)c12 (single isomer, unassigned) [Ex. 179a]
6 | 14 | Cc1nc(N)c(C#N)c(-c2c(F)cc3c(N4CC5CCC(C4)N5)nc(OC[C@@]45CCCN4C[C@H](F)C5)nc3c2F)c1C(F)(F)F (single isomer, unassigned) [Ex. 156a]
7 | 3280 | NC1(COc2nc(N3CC4CCC(C3)N4)c3cc(Cl)c(-c4cc(O)cc5ccccc45)c(F)c3n2)CCC(O)C1 (centres unmarked) [Example 108, 4-(2-((1-amino-3-hydroxycyclopentyl)methoxy)-4-(3,8-diazabicyclo[3.2.1]octan-3-yl)-6-chloro-8-fluoroquinazolin-7-yl)naphthalen-2-ol, TFA]
8 | 5.15 | Cc1cc2cnn(C)c2c(-c2c(F)cc3c(N4C[C@H]5CC[C@@H](C4)N5)nc(OC[C@@]45CCCN4C[C@H](F)C5)nc3c2F)c1C(F)(F)F [251a, 4-((1R,5S)-3,8-diazabicyclo[3.2.1]octan-3-yl)-7-(1,5-dimethyl-6-(trifluoromethyl)-1H-indazol-7-yl)-6,8-difluoro-2-(((2R, 7aS)-2-fluorotetrahydro-1H-pyrrolizin-7a(5H)-yl)methoxy)quinazoline]
9 | 2470 | NC1(COc2nc(N3CC4CCC(C3)N4)c3cc(Cl)c(-c4cc(O)cc5ccccc45)c(F)c3n2)CCOC1 (centres unmarked) [Example 111, 4-(2-((3-amino-tetrahydrofuran-3-yl)methoxy)-4-(3,8-diazabicyclo[3.2.1]octan-3-yl)-6-chloro-8-fluoroquinazolin-7-yl) naphthalen-2-ol, TFA]
10 | 770 | Oc1cc(-c2c(Cl)cc3c(N4CC5CCC(C4)N5)nc(OCC4(F)CNC4)nc3c2F)c2ccccc2c1 [Example 110, 4-(4-(3,8-diazabicyclo [3.2.1]octan-3-yl)-6-chloro-8-fluoro-2-((3-fluoroazetidin-3-yl)methoxy)quinazolin-7-yl)naphthalen-2-ol, TFA]
11 | 591 | CN1[C@@H]2CC[C@H]1CN(c1nc(OC[C@@]34CCCN3C[C@H](F)C4)nc3c(F)c(-c4cc(O)cc5cccc(Cl)c45)c(F)cc13)C2 [Ex. 161, 5-chloro-4-(6,8-difluoro-2-(((2R,7aS)-2-fluorotetrahydro-1H-pyrrolizin-7a(5H)-yl)-methoxy)-4-((1R,5S)-8-methyl-3,8-diaza-bicyclo[3.2.1]octan-3-yl)quinazolin-7-yl)-naphthalen-2-ol]
12 | 1280 | C[C@]12CC[C@H](CN(c3nc(OC[C@@]45CCCN4C[C@H](F)C5)nc4c(F)c(-c5cc(F)cc6cccc(Cl)c56)c(F)cc34)C1)N2 [Ex. 158, 7-(8-chloro-3-fluoro-naphthalen-1-yl)-6,8-difluoro-2-(((2R,7aS)-2-fluorotetrahydro-1H-pyrrolizin-7a(5H)-yl)-methoxy)-4-((1S,5R)-1-methyl-3,8-diaza-bicyclo[3.2.1]octan-3-yl)quinazoline]
13 | 2680 | Oc1cc(-c2c(Cl)cc3c(N4CC5CCC(C4)N5)nc(OCC4CNC4)nc3c2F)c2ccccc2c1 [Example 109, 4-(2-(azetidin-3-ylmethoxy)-4-(3,8-diazabicyclo[3.2.1]octan-3-yl)-6-chloro-8-fluoroquinazolin-7-yl)naphthalen-2-ol, TFA]
14 | 4820 | CNc1cc(C)c(C(F)(F)F)c(-c2c(F)cc3c(N4CC5CCC(C4)N5)nc(OCC4(CN5CCOCC5)CC4)nc3c2F)n1 (single isomer, unassigned) [Ex. 137b]
15 | 6.11 | Cc1cc2[nH]nc(C)c2c(-c2c(F)cc3c(N4CC5CCC(C4)N5)nc(OC[C@@]45CCCN4C[C@H](F)C5)nc3c2F)c1OC(F)F (single isomer, unassigned) [Ex. 233b]
16 | 1070 | Cc1cc2[nH]nc(C)c2c(-c2c(F)cc3c(N4CC5CCC(C4)N5)nc(OC[C@@]45CCCN4C[C@H](F)C5)nc3c2F)c1OC(F)F (single isomer, unassigned) [Ex. 233a]
17 | 148 | Cc1cc2[nH]ncc2c(-c2c(F)cc3c(N4CC5CCC(C)(C4)N5)nc(OCC4(CN5CCOCC5)CC4)nc3c2F)c1OC(F)(F)F (stereo in doubt) [Ex. 125, 4-((1-(((6,8-difluoro-7-(6-methyl-5-(trifluoromethoxy)-1H-indazol-4-yl)-4-((1S,5R)-1-methyl-3,8-diazabicyclo[3.2.1]octan-3-yl)quinazolin-2-yl)oxy)methyl)cyclopropyl)methyl) morpholine]

Row | Structure (SMILES) | IC50 [nM]
18 | C#Cc1cccc2cc(N)nc(-c3c(F)cc4c(N5CC6CCC(C5)N6)nc(OC[C@@]56CCCN5C[C@H](F)C6)nc4c3F)c12 (single isomer, unassigned) [Ex. 148a] | 13.6
19 | COCC1CCN(C[C@@]2(COc3nc(N4CC5CC[C@@](C)(C4)N5)c4cc(F)c(-c5cc(O)cc6cccc(Cl)c56)c(F)c4n3)CC2(F)F)C1 (single isomer, unassigned) [Ex. 214a] | 4.95
20 | Nc1cc(-c2c(Cl)cc3c(N4CC5CCC(C4)N5)nc(OC[C@@]45CCCN4C[C@H](F)C5)nc3c2F)c(C(F)(F)F)c(Cl)n1 (single isomer, unassigned) [Ex. 155b] | 2.33
21 | C[C@]12CCC(CN(c3nc(OC[C@@]45CCCN4C[C@H](F)C5)nc4c(F)c(-c5cc(O)cc6cccc(Cl)c56)c(F)c(F)c34)C1)N2 [Ex. 172, 5-chloro-4-(5,6,8-trifluoro-2-(((2R,7aS)-2-fluorotetrahydro-1H-pyrrolizin-7a(5H)-yl)-methoxy)-4-((1S,5R)-1-methyl-3,8-diaza-bicyclo[3.2.1]octan-3-yl)quinazolin-7-yl)-naphthalen-2-ol, 2TFA] | 17.1
22 | Cc1nc2[nH]nc(C)c2c(-c2c(F)cc3c(N4C[C@H]5CC[C@@H](C4)N5)nc(OC[C@@]45CCCN4C[C@H](F)C5)nc3c2F)c1C(F)(F)F (single isomer, unassigned) [250a] | 400
23 | Cc1cc(N)nc(-c2c(Cl)cc3c(N4CC5CC(O)C(C4)N5)nc(OC[C@@]45CCCN4C[C@H](F)C5)nc3c2F)c1C(F)(F)F (single isomer, unassigned) [249a] | 351
24 | C[C@]12CCC(CN(c3nc(OC[C@@]45CCCN4C[C@H](F)C5)nc4c(F)c(-c5cc(O)cc6cccc(C(F)F)c56)c(F)cc34)C1)N2 (single isomer, unassigned) [Ex. 181a] | 3.97
25 | C[C@]12CCC(CN(c3nc(OCC45CCCN4CC(C(F)F)C5)nc4c(F)c(-c5cc(O)cc6cccc(Cl)c56)c(F)cc34)C1)N2 (single isomer, unassigned) [Ex. 173-2b] | 2230
26 | Nc1cc(Cl)c(C(F)(F)F)c(-c2c(Cl)cc3c(N4CC5CCC(C4)N5)nc(OC[C@@]45CCCN4C[C@H](F)C5)nc3c2F)n1 (single isomer, unassigned) [Ex. 154b] | 381
27 | Cc1cc(N)nc(-c2c(F)cc3c(N4CC5CC[C@@](C)(C4)N5)nc(OC[C@@]45CCCN4C[C@H](F)C5)nc3c2F)c1C(F)(F)F (single isomer, unassigned) [Ex. 200b] | 1130
28 | C#Cc1c(F)ccc2cc(N)nc(-c3c(F)cc4c(N5C[C@H]6CC[C@@H](C5)N6)nc(OC[C@@]56CCCN5C[C@H](F)C6)nc4c3F)c12 (single isomer, unassigned) [252b] | 204

tested on: AsPC-1 cells containing homozygous KRAS-G12D activating mutation; assay: Cellular phospho-ERK assay with 10% FBS (Examples 107a-256); type: cell-based; details: Homo sapiens, ASPC1, 2 h, read-out: IC50 (nM) pERK (cell with FBS 10%), AsPC-1 cells, 10% fetal bovine serum, 2 hours, ratio of p-Erk vs total Erk
Method: 5% CO2 for 2 hours. […] Assay plates were read on a EnVision Multimode Plate Reader (PerkinElmer) and the ratio of p-Erk vs total Erk in each well was used as the final readout.

Row | Structure (SMILES) | IC50 [nM]
29 | Nc1cc(-c2c(Cl)cc3c(N4CC5CCC(C4)N5)nc(OC[C@@]45CCCN4C[C@H](F)C5)nc3c2F)c(C(F)(F)F)c(Cl)n1 (single isomer, unassigned) [Ex. 155b] | 144
30 | C[C@]12CCC(CN(c3nc(OC[C@@]45CCCN4C[C@H](F)C5)nc4c(F)c(-c5cc(O)cc6cccc(Cl)c56)c(F)c(F)c34)C1)N2 [Ex. 172, 5-chloro-4-(5,6,8-trifluoro-2-(((2R,7aS)-2-fluorotetrahydro-1H-pyrrolizin-7a(5H)-yl)-methoxy)-4-((1S,5R)-1-methyl-3,8-diaza-bicyclo[3.2.1]octan-3-yl)quinazolin-7-yl)-naphthalen-2-ol, 2TFA] | 3500

same assay, conditions: read-out: IC50 (nM) pERK (cell with FBS 10%); AsPC-1 cells, 10% fetal bovine serum, 2 hours, ratio of p-Erk vs total Erk

Row | Structure (SMILES) | IC50 [nM]
31 | C#Cc1cccc2cc(N)nc(-c3c(F)cc4c(N5CC6CCC(C5)N6)nc(OC[C@@]56CCCN5C[C@H](F)C6)nc4c3F)c12 (single isomer, unassigned) [Ex. 148a] | 235
32 | COCC1CCN(C[C@@]2(COc3nc(N4CC5CC[C@@](C)(C4)N5)c4cc(F)c(-c5cc(O)cc6cccc(Cl)c56)c(F)c4n3)CC2(F)F)C1 (single isomer, unassigned) [Ex. 214a] | 3710
33 | CN(C)CC1(COc2nc(N3C[C@H]4CC[C@@](C)(C3)N4)c3cc(F)c(-c4cc(O)cc5ccccc45)c(F)c3n2)CC1C(=O)O (stereo partly drawn) [Ex. 107, 2-(((6,8-difluoro-7-(3-hydroxynaphthalen-1-yl)-4-((1S,5R)-1-methyl-3,8-diazabicyclo[3.2.1]octan-3-yl)quinazolin-2-yl)oxy)methyl)-2-((dimethylamino)methyl)cyclopropane-1-carboxylc acid] | 30000
34 | C[C@]12CCC(CN(c3nc(OC[C@@]45CCCN4C[C@H](F)C5)nc4c(F)c(-c5cc(O)cc6cccc(C(F)F)c56)c(F)cc34)C1)N2 (racemic) [Ex. 181a, rac-4-(6,8-difluoro-2-(((2R,7aS)-2-fluoro-tetrahydro-1H-pyrrol-izin-7a(5H)-yl)meth-oxy)-4-((18,5R)-1-methyl-3,8-diaza-bicyclo[3.2.1]octan-3-yl)quinazolin-7-yl)-5-(difluoromethyl)naph-thalen-2-ol] | 122
35 | C[C@]12CCC(CN(c3nc(OC[C@@]45CCCN4C[C@H](F)C5)nc4c(F)c(-c5cc(O)cc6cccc(C(F)F)c56)c(F)cc34)C1)N2 (racemic) [Ex. 181b, rac-4-(6,8-difluoro-2-(((2R,7aS)-2-fluoro-tetrahydro-1H-pyrrol-izin-7a(5H)-yl)meth-oxy)-4-((1S,5R)-1-methyl-3,8-diaza-bicyclo[3.2.1]octan-3-yl)quinazolin-7-yl)-5-(difluoromethyl)naph-thalen-2-ol] | 2660
